{
  "source": "patent US10265329B2",
  "about": "“Altering steroid metabolism for treatment of steroid-dependent disease” (THE CLEVELAND CLINIC FOUNDATION, priority 2015, dated 2019)",
  "key": {"[1]": {"system": "androgen-responsive gene expression (PSA)", "experiment": "Stimulation of androgen-responsive gene expression by Abi metabolites (qPCR)", "format": "cell-based, human", "settings": "LAPC4 and LNCaP", "description": "Cells were starved with phenol red-free and serum free-medium for at least 48 h before treatment with the indicated drugs and/or androgens. RNA extraction and cDNA synthesis were performed with the GenElute Mammalian Total RNA miniprep kit (Sigma-Aldrich) and iScript cDNA Synthesis Kit (Bio-Rad, Hercules, Calif.) respectively. Quantitative PCR (qPCR) analysis was conducted in triplicate in an ABI 7500 Real-Time PCR machine (Applied Biosystems) using iTaq Fast SYBR Green Supermix with ROX (Bio-Rad) and primers for TMPRSS2, PSA and RPLPO, as described. Chang et al., Cell 154, 1074-1084 (2013). Accurate quantitation of each mRNA was achieved by normalizing the sample values to RPLPO and to vehicle-treated cells. 50 μg cell lysate was used for immunoblot with rabbit anti-SRD5A1 (Abnova) and mouse anti-β-actin (Sigma-Aldrich) antibodies."}, "3βHSD": {"biological_target": "T1, 3βHSD (Homo sapiens, UniProt P14060)", "T1 construct": "endogenous in cells; host or cells: LNCaP, VCaP", "T1 sequence (P14060 2-373 limits assumed)": "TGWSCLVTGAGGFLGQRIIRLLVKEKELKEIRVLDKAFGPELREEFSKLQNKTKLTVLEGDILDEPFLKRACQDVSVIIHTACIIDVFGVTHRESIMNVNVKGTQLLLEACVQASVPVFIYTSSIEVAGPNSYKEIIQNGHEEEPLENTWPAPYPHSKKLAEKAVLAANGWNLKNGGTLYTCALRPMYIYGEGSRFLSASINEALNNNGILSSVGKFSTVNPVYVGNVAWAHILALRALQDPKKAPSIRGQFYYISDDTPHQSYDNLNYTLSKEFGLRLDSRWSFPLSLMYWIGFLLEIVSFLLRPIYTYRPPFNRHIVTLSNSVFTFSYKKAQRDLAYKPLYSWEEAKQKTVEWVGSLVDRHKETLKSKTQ", "experiment": "Conversion of [3H]-DHEA by 3βHSD to AD in prostate cancer cells (HPLC/TLC)", "format": "cell-based", "settings": "for 3βHSD inhibition activity relative to D4A: LNCaP, [3H]-DHEA to AD, 48 hours", "description": "Cell Line Metabolism: Cells were seeded and incubated in 12-well plates with 0.2 million cells/well for ˜24 h and then incubated with a mixture of radioactive ([^3H]-labeled) and non-radioactive androgens (final concentration, 100 nM; ˜1,000,000 cpm/well; PerkinElmer, Waltham, Mass.) at 37° C. Aliquots of medium were collected at the indicated times. Collected medium was treated with 1,000 units of β-glucuronidase (Helix pomatia; Sigma-Aldrich) at 65° C. for 2 h, extracted with 860 μL ethyl acetate:isooctane (1:1), and concentrated under nitrogen gas. Xenograft Metabolism: 10^7 LNCaP or VCaP cells were injected subcutaneously with Matrigel into surgically orchiectomized NSG mice that were implanted with 5 mg 90-day sustained-release DHEA pellets (Innovative Research of American, Sarasota, Fla.). Xenografts were harvested when they reached 1000 mm^3, minced, and cultured in DMEM with 10% FBS at 37° C. with mixture of radioactive ([^3H]-labeled) and non-radioactive androgens, or Abi, when they reached 1000 mm^3. Each xenograft was analyzed in triplicate in at least three independent experiments. Aliquots of medium were collected at the indicated times. Collected medium was treated with 1,000 units of β-glucuronidase at 65° C. for 2 h, extracted with 860 μL ethyl acetate:isooctane (1:1), and concentrated under nitrogen gas.\nDried samples were reconstituted in 50% methanol and injected into the HPLC. Steroids and drug metabolites were separated on Kinetex 100×2.1 mm, 2.6 μm particle size C18 reverse-phase column (Phenomenex, Torrance, Calif.) using a methanol/water gradient at 30° C. […] Alternatively, dried samples were applied to plastic-backed silica gel plates and separated by thin-layer chromatography (TLC) using a mobile phase of 3:1 chloroform:ethyl acetate, followed by exposure of the plates to a phosphorimager screen and quantitated with a Storm model 860 phosphorimager (Applied Biosystems, Foster City, Calif.). […] Results are shown as mean±SD. […]"}, "mutant AR (LNCaP)": {"biological_target": "T2, mutant AR (LNCaP) (Homo sapiens, UniProt P10275, T878A)", "T2 construct": "endogenous in cells; host or cells: LNCaP", "T2 sequence (P10275 1-920 T878A)": "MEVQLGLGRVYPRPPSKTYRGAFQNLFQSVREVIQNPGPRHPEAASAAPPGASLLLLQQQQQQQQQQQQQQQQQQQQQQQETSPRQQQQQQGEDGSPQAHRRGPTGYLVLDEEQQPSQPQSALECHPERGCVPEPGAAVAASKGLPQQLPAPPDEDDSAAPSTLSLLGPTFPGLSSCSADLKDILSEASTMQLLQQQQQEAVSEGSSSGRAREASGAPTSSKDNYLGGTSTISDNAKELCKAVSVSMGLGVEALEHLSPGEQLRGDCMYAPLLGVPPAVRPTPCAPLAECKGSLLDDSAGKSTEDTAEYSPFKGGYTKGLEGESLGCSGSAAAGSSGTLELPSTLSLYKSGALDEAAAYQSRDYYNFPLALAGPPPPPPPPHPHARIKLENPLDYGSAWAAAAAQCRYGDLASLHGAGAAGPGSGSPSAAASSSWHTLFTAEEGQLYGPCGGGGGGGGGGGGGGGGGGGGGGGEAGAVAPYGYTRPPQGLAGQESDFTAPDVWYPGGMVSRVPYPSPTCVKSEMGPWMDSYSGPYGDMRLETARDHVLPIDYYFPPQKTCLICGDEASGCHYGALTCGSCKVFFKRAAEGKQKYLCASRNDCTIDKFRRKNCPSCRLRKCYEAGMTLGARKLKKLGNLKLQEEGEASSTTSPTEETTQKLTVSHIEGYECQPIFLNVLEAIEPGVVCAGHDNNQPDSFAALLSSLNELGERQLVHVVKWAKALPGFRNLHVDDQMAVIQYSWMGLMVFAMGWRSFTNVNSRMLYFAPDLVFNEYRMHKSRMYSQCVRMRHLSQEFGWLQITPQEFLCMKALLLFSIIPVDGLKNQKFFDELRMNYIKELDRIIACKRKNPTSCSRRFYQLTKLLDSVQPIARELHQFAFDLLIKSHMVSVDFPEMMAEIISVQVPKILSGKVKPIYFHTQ", "experiment": "AR competition assay with [3H]-R1881 in LNCaP cells", "format": "binding", "settings": "for affinity for T877A mutant AR: [3H]-R1881, 30 min", "description": "Cells were cultured in serum-free medium for 48 h and then treated with [^3H]-R1881 and the indicated concentrations of D4A, Abi, enzalutamide, R1881 or bicalutamide for 30 min. Cells were washed with 1×PBS 4 times and 0.9% NaCl solution twice before lysis with RIPA buffer.\nCells were starved with phenol red-free and serum free-medium for at least 48 h and then treated with [^3H]-R1881 and the indicated concentrations of drugs for 30 min. Cells were washed thoroughly with PBS and then lysed with […]."}},
  "data": [
    {"smiles": "C[C@]12CCC(=O)C[C@@H]1CC[C@@H]1[C@@H]2CC[C@]2(C)C(c3cccnc3)=CC[C@@H]12", "note": "[Compound 5α-Abi, 17-(3-pyridyl)-5α-androsta-16-ene-3-one]", "values": [
      {"measurement": "induction of androgen-responsive gene expression", "setting": "[1]", "result": "results in expression of androgen-responsive genes"},
      {"measurement": "3βHSD inhibition activity relative to D4A", "setting": "3βHSD", "result": "attenuation or loss"},
      {"measurement": "affinity for T877A mutant AR", "setting": "mutant AR (LNCaP)", "result": "comparable to that of D4A"}
    ]},
    {"smiles": "C[C@]12CCC(=O)C=C1CC[C@@H]1[C@@H]2CC[C@]2(C)C(c3cccnc3)=CC[C@@H]12", "note": "[Compound D4A, 17-(3-Pyridyl)androsta-4,16-dien-3-one]", "values": [
      {"measurement": "potency relative to Abi at blocking conversion of [3H]-DHEA by 3βHSD to AD", "setting": "3βHSD; LNCaP and VCaP cells, TLC and HPLC", "result": "approximately 10 fold"},
      {"measurement": "IC50", "setting": "mutant AR (LNCaP); competition with 0.1 nM [3H]-R1881, read-out: IC50, affinity for mutant AR", "result": 5.3, "unit": "nM"}
    ]},
    {"smiles": "C[C@]12CC[C@@H](O)C[C@@H]1CC[C@@H]1[C@@H]2CC[C@]2(C)C(c3cccnc3)=CC[C@@H]12", "note": "[Compound 3α-OH-5α-Abi, 17-(3-pyridyl)-5α-androsta-16-ene-3α-ol]", "values": [
      {"measurement": "induction of androgen-responsive gene expression", "setting": "[1]", "result": "A lower level of induction"},
      {"measurement": "3βHSD inhibition activity relative to D4A", "setting": "3βHSD", "result": "attenuation or loss"},
      {"measurement": "affinity for T877A mutant AR", "setting": "mutant AR (LNCaP)", "result": "lower"}
    ]}
  ]
}
